Legend:
[1] = Terminal elimination half-life in Sprague-Dawley rat at 3 mg/kg, iv measured over 24 hrs by LC-MS/MS analysis; assay type: ADME, organism-based; settings: in vivo, read-out: beta t1/2 (converted)
[2] = Drug metabolism in Balb/c mouse plasma assessed as increase in arginine level by measuring fold change at 100 mg/kg, po measured for 24 hrs […] by LC-MS/MS analysis; assay type: ADME, organism-based; settings: in vivo
[3] = Toxicity in Sprague-Dawley rat assessed as mortality upto 1 g/Kg, po measured after 7 days; assay type: organism-based; settings: in vivo, 1000 mg/kg, 168 h, time 7 day
[4] = Inhibition of mouse intracellular ARG in M2 polarized C57BL/6 mouse BMDM cells incubated for 24 hrs by absorbance based analysis; assay type: cell-based; settings: C57BL/6, BMDM
[5] = Permeability in human Caco-2 cells; assay type: ADME, cell-based
[6] = Genotoxicity in Salmonella typhimurium TA98 in presence of S9 fraction by Ames test; assay type: toxicity; settings: salmonella enterica subsp. enterica serovar typhimurium
[7] = biological target: Voltage-gated inwardly rectifying potassium channel KCNH2 (Homo sapiens, UniProt Q12809); test: Inhibition of hERG; assay type: toxicity
Voltage-gated inwardly rectifying potassium channel KCNH2, sequence (Q12809 whole entry): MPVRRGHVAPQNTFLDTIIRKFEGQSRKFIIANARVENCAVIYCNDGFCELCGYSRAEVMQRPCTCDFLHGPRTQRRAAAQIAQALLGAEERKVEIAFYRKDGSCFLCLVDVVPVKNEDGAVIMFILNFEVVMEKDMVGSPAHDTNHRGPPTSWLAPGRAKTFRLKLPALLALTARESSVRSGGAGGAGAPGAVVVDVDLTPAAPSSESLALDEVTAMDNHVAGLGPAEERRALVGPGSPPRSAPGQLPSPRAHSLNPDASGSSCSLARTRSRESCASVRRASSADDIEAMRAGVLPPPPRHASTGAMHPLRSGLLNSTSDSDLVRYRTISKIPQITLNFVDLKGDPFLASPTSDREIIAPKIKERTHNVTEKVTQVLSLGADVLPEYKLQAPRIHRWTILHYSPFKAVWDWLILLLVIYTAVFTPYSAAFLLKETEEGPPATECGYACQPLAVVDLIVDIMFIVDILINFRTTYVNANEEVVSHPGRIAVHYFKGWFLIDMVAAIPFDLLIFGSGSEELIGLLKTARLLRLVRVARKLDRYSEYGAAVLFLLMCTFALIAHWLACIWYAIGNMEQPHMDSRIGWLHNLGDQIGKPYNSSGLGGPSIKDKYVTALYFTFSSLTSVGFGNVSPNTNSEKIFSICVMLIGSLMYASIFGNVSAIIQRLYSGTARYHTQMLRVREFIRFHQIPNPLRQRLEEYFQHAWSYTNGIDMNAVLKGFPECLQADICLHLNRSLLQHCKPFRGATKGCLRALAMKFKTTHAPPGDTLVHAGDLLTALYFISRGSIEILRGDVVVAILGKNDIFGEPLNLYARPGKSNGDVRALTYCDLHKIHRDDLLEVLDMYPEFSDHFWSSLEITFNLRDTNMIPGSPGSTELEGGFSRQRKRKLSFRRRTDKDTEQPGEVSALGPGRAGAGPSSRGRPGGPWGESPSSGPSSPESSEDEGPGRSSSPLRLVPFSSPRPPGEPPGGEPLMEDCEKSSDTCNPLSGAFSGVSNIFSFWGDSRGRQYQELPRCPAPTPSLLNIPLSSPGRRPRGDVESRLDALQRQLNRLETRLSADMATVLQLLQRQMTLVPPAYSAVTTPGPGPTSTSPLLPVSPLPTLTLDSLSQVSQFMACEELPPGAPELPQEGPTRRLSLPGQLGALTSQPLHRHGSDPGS

[8] = Oral bioavailability in Sprague-Dawley rat at 10 mg/kg measured over 24 hrs by LC-MS/MS analysis; assay type: ADME, organism-based; settings: in vivo
[9] = Drug metabolism in Balb/c mouse plasma assessed as (3R,5S)-3-amino-5-(2-boronoethyl)piperidine-3-carboxylic acid metabolite formation at 100 mg/kg, po measured for 24 hrs by LC-MS/MS analysis; assay type: ADME, organism-based; settings: in vivo
Arginase-1 [10] = biological target: T1, Arginase-1 (Homo sapiens, UniProt P05089); test: Inhibition of human recombinant ARG1 expressed in Escherichia coli using L-arginine hydrochloride as substrate assessed as inhibition of urea production incubated for 20 mins by colorimetric analysis
T1 sequence (P05089 whole entry): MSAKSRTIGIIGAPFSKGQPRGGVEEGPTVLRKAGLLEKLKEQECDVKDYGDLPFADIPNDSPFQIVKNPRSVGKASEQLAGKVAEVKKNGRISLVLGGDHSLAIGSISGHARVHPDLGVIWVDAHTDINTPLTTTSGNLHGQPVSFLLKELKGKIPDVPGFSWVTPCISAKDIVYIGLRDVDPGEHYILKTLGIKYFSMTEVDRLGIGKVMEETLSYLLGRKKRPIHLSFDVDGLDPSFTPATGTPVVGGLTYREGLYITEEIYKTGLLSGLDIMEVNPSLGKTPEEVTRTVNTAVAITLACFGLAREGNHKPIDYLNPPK

[11] = Volume of distribution at steady state in Sprague-Dawley rat at 3 mg/kg, iv measured over 24 hrs by LC-MS/MS analysis; assay type: ADME, organism-based; settings: in vivo, read-out: Vdss
[12] = Tmax in Sprague-Dawley rat at 10 mg/kg, po measured over 24 hrs by LC-MS/MS analysis; assay type: ADME, organism-based; settings: in vivo
[13] = Toxicity in Sprague-Dawley rat assessed as change in body weight measured after 7 days; settings: in vivo, 168 h, time 7 day
[14] = Clearance in Sprague-Dawley rat at 3 mg/kg, iv measured over 24 hrs by LC-MS/MS analysis; assay type: ADME, organism-based; settings: in vivo
[15] = Drug metabolism in Sprague-Dawley rat plasma assessed as increase in arginine level by measuring fold change at 10 mg/kg, po measured for 24 hrs by LC-MS/MS analysis; assay type: ADME, organism-based; settings: in vivo
[16] = AUC (0 to infinity) in Sprague-Dawley rat at 10 mg/kg, po measured for 24 hrs by LC-MS/MS analysis; assay type: ADME, organism-based; settings: in vivo
Arginase-1 [17] = biological target: T1, Arginase-1; test: Inhibition of extracellular arginase (unknown origin)
[18] = Oral bioavailability in Balb/c mouse at 100 mg/kg measured for 24 hrs by LC-MS/MS analysis; assay type: ADME, organism-based; settings: in vivo

| Compound | IC50 [4] [nM] | IC50 (Arginase-1 [10]) [nM] | other results |
| --- | --- | --- | --- |
| N=C(N)NCCC[C@H](N)C(=O)N1C[C@@H](CCB(O)O)C[C@](N)(C(=O)O)C1 | > 300000 | 160 | half-life [1]: 2.66 h; fold change (FC) [2]: 3; Activity [3]: Non-Toxic; permeability [5]: Impermeable; Activity [6]: Toxic; inhibition (INH) [7]: Not Active; bioavailability [8]: 18.8%; Drug metabolism [9]: Metabolite_Detected; Vd [11]: 0.69 L/kg; Tmax [12]: 1 h; Activity [13]: Non-Toxic; clearance [14]: 5.87 mL/min/kg; fold change (FC) [15]: 2 |
| N[C@@]1(C(=O)O)CNC[C@@H](CCB(O)O)C1 | – | 830 | – |
| NC(=O)NCCC[C@H](N)C(=O)N1C[C@@H](CCB(O)O)C[C@](N)(C(=O)O)C1 | > 300000 | 360 | – |
| N[C@@H](CCC(=O)O)C(=O)N1C[C@@H](CCB(O)O)C[C@](N)(C(=O)O)C1 | > 300000 | 680 | – |
| CSCC[C@H](N)C(=O)N1C[C@@H](CCB(O)O)C[C@](N)(C(=O)O)C1 | > 300000 | 400 | – |
| CC[C@H](C)[C@H](N)C(=O)N1C[C@@H](CCB(O)O)C[C@](N)(C(=O)O)C1 | > 300000 | 760 | – |
| NCC(=O)N1C[C@@H](CCB(O)O)C[C@](N)(C(=O)O)C1 | > 300000 | 250 | half-life [1]: 2.66 h; bioavailability [8]: 18.8%; AUC(0-inf) [16]: 2680 ng·h/mL; Vd [11]: 0.69 L/kg; Tmax [12]: 1 h; clearance [14]: 5.87 mL/min/kg; fold change (FC) [15]: 2 |
| COC(=O)[C@@]1(N)C[C@H](CCB(O)O)CN(C(=O)[C@H](C)N)C1 | – | > 10000 | – |
| NC(=O)CC[C@H](N)C(=O)N1C[C@@H](CCB(O)O)C[C@](N)(C(=O)O)C1 | > 300000 | 420 | – |
| CN(C)C[C@@H]1CC[C@@H](CCB(O)O)C[C@]1(N)C(=O)O | 1100 | 20 | IC50 (Arginase-1 [17]): 20 nM |
| N[C@@]1(C(=O)O)CCC[C@@H](CCB(O)O)C1 | – | 1200 | – |
| N[C@@H](CC(=O)O)C(=O)N1C[C@@H](CCB(O)O)C[C@](N)(C(=O)O)C1 | > 300000 | 650 | – |
| C[C@@H]1N(C(=O)[C@@H](N)CCCNC(=N)N)C[C@@H](CCB(O)O)C[C@]1(N)C(=O)O | – | 400 | – |
| N[C@@H](Cc1ccc(O)cc1)C(=O)N1C[C@@H](CCB(O)O)C[C@](N)(C(=O)O)C1 | > 300000 | 280 | – |
| C[C@@H](N)C(=O)N1C[C@@H](CCB(O)O)C[C@](N)(C(=O)O)C1 | > 300000 | 3220 | – |
| C[C@@H](O)[C@H](N)C(=O)N1C[C@@H](CCB(O)O)C[C@](N)(C(=O)O)C1 | > 300000 | 380 | – |
| C[C@H](N)C(=O)N1C[C@H](CCB(O)O)C[C@@](N)(C(=O)O)C1 | – | > 10000 | – |
| NC(=O)C[C@H](N)C(=O)N1C[C@@H](CCB(O)O)C[C@](N)(C(=O)O)C1 | > 300000 | 360 | – |

| Compound | IC50 [4] [nM] | IC50 (Arginase-1 [10]) [nM] | other results |
| --- | --- | --- | --- |
| C[C@H](N)C(=O)N1C[C@@H](CCB(O)O)C[C@](N)(C(=O)O)[C@@H]1C | – | 250 | half-life [1]: 2.66 h; bioavailability [8]: 65.6%; Vd [11]: 0.69 L/kg; Tmax [12]: 1 h; clearance [14]: 5.87 mL/min/kg; fold change (FC) [15]: 2 |
| N[C@@H](CO)C(=O)N1C[C@@H](CCB(O)O)C[C@](N)(C(=O)O)C1 | > 300000 | 280 | – |
| C[C@H](N)C(=O)N1C[C@@H](CCB(O)O)C[C@](N)(C(=O)O)C1 | > 300000 | 270 | half-life [1]: 2.66 h; fold change (FC) [2]: 3; bioavailability [18]: 58%; bioavailability [8]: 18.8%; Drug metabolism [9]: Metabolite_Detected; Vd [11]: 0.69 L/kg; Tmax [12]: 1 h; clearance [14]: 5.87 mL/min/kg; fold change (FC) [15]: 2 |
| CC(C)[C@H](N)C(=O)N1C[C@@H](CCB(O)O)C[C@](N)(C(=O)O)C1 | > 300000 | 360 | – |
| NCCCC[C@H](N)C(=O)N1C[C@@H](CCB(O)O)C[C@](N)(C(=O)O)C1 | > 300000 | 250 | – |
| N[C@]1(C(=O)O)C[C@H](CCB(O)O)CN(C(=O)[C@@H]2CCCN2)C1 | > 300000 | 350 | – |
| CCC[C@H](N)C(=O)N1C[C@@H](CCB(O)O)C[C@](N)(C(=O)O)C1 | > 300000 | 340 | – |
| N[C@@H](CS)C(=O)N1C[C@@H](CCB(O)O)C[C@](N)(C(=O)O)C1 | > 300000 | 760 | – |
| C[C@H](N)C(=O)N1C[C@@H](CCB(O)O)C[C@@](N)(C(=O)O)C1 | – | > 10000 | – |
| C[C@H](N)C(=O)N1C[C@H](CCB(O)O)C[C@](N)(C(=O)O)C1 | – | > 10000 | – |
| N[C@@H](Cc1ccccc1)C(=O)N1C[C@@H](CCB(O)O)C[C@](N)(C(=O)O)C1 | > 300000 | 240 | half-life [1]: 2.66 h; bioavailability [8]: 18.8%; Vd [11]: 0.69 L/kg; Tmax [12]: 1 h; clearance [14]: 5.87 mL/min/kg; fold change (FC) [15]: 2 |
| N[C@@H](Cc1c[nH]cn1)C(=O)N1C[C@@H](CCB(O)O)C[C@](N)(C(=O)O)C1 | > 300000 | 210 | – |
| C[C@H](N)C(=O)N1C[C@H](CCCB(O)O)[C@](N)(C(=O)O)C1 | 56200 | – | – |
| N[C@@H](Cc1c[nH]c2ccccc12)C(=O)N1C[C@@H](CCB(O)O)C[C@](N)(C(=O)O)C1 | > 300000 | 280 | – |
| CC(C)C[C@H](N)C(=O)N1C[C@@H](CCB(O)O)C[C@](N)(C(=O)O)C1 | > 300000 | 610 | – |
| NCCC[C@H](N)C(=O)N1C[C@@H](CCB(O)O)C[C@](N)(C(=O)O)C1 | > 300000 | 310 | – |
| CNCC(=O)N1C[C@@H](CCB(O)O)C[C@](N)(C(=O)O)C1 | > 300000 | 420 | – |
| Cn1cc(C[C@@H](N)C(=O)N2C[C@@H](CCB(O)O)C[C@](N)(C(=O)O)C2)c2ccccc21 | > 300000 | 740 | – |

From ChEMBL document CHEMBL5537146, “Novel orally bioavailable piperidine derivatives as extracellular arginase inhibitors developed by a ring expansion” (Eur J Med Chem, 2024)
